We go through 17 compounds from patent publication US10947252B2, “Inhibitors of KEAP1-Nrf2 protein-protein interaction” (Janssen Pharmaceutica NV, priority 2018, dated 2021).

For experiment [1], the system named is Glo-Response ARE-luc2P HEK293 cell line. The experiment is described as follows: ARE luciferase reporter cell-based assay.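 Further: luciferase signal tracks Nrf2 activation of the ARE once compounds disrupt KEAP1-Nrf2 binding, read with One-Glo reagent, DMSO serving as low control.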 To be noted: Homo sapiens, HEK293, 24 h, average of results obtained. Background: In a reporter assay the amount or activity of a reporter protein is the signal.
The target of experiment [2] is Kelch domain of human KEAP1 (321-624 aa) (Homo sapiens (Human), UniProt Q14145). Nature of the experiment: KEAP1 KELCH ThermoFluor binding assay.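 Further: Ligand-induced melting temperature shift of E. coli-expressed KEAP1 Kelch protein, Kd estimated from concentration-response curves of ΔTm.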 To be noted: KEAP Kelch […], 1,8-ANS, pH 7.0, average of results obtained, read-out: Tf Kd. For orientation: Differential scanning fluorimetry follows unfolding on heating by fluorescence.

A value given as a limit tells only on which side of the number the result lay.

Kelch domain of human KEAP1 (321-624 aa), sequence (Q14145 321-624): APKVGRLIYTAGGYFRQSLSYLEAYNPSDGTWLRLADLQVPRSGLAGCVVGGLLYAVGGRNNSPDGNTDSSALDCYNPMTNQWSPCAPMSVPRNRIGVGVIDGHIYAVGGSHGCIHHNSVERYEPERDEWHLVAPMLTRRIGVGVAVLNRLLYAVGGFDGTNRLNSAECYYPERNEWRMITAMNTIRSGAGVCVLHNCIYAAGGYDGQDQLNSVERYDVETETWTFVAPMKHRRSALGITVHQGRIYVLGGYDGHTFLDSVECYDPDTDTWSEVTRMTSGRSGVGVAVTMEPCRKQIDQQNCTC

A word on the EC50: it is the concentration that produces a half-maximal response. Read a low EC50 as higher potency in that assay. In general, Kd refers to the free concentration of one partner at which half of the binding sites on the other are occupied at equilibrium, for simple one-to-one binding. `Cc1ccc([C@@H](CC(=O)O)c2ccn3c(C(F)(F)F)nnc3c2)cc1CN1C[C@@H]2CCCN2c2ncccc2S1(=O)=O` (single isomer, unassigned) [Example 255, (*R)-3-(3-(((S)-5,5-Dioxido-7a,8,9,10-tetrahydropyrido[2,3-f]pyrrolo[2,1-d][1,2,5]thiadiazepin-6(7H)-yl)methyl)-4-methylphenyl)-3-(3-(trifluoromethyl)-[1,2,4]triazolo[4,3-a]pyridin-7-yl)propanoic Acid] registered an EC50 in experiment [1] of 922 nM. For the same compound, the Kd in experiment [2] was under 1 nM.
In experiment [1], `Cc1ccc([C@H](CC(=O)O)c2ccc3c(nnn3CC3CC3)c2C)cc1CN1C[C@@H]2CCCCN2c2ncccc2S1(=O)=O` (single isomer, unassigned) [Example 232, (*S)-3-(1-(Cyclopropylmethyl)-4-methyl-1H-benzo[d][1,2,3]triazol-5-yl)-3-(3-(((*S)-5,5-dioxido-7,7a,8,9,10,11-hexahydro-6H-dipyrido[2,1-d:2′,3′-f][1,2,5]thiadiazepin-6-yl)methyl)-4-methylphenyl)propanoic Acid] had an EC50 of 2.6 nM. Also, the Kd in experiment [2] is under 1 nM.
For the compound `Cc1cnc2c(c1)S(=O)(=O)N(Cc1cc([C@H](CC(=O)O)c3ccn4c(C(F)(F)F)nnc4c3C)ccc1C#N)CC1(CC1)O2` (single isomer, unassigned) [Example 105, (*S)-3-(4-Cyano-3-((8′-methyl-1′,1′-dioxidospiro[cyclopropane-1,4′-pyrido[2,3-b][1,4,5]oxathiazepin]-2′(3′H)-yl)methyl)phenyl)-3-(8-methyl-3-(trifluoromethyl)-[1,2,4]trizolo[4,3-a]pyridine-7-yl)propanoic Acid], the response in experiment [1] was half-maximal at 14400 nM (EC50). Besides, in experiment [2], the Kd came out at 16 nM.
Regarding `Cc1ccc(C(c2ccn3c(C(F)(F)F)nnc3c2C)C(C)(C)C(=O)O)cc1CN1CC2(CCOCC2)Oc2nc(OCCCO)ccc2S1(=O)=O` (stereo not shown) [Example 49, 3-(3-((7′-(3-Hydroxypropoxy)-1′,1′-dioxido-2,3,5,6-tetrahydrospiro[pyran-4,4′-pyrido[2,3-b][1,4,5]oxathiazepin]-2′(3′H)-yl)methyl)-4-methylphenyl-2,2′-dimethyl-3-(8-methyl-3-trifluoromethyl)-[1,2,4]triazolo[4,3-a]pyridine-7-yl)propanoic Acid], the EC50 in experiment [1] worked out at 71.9 nM. For the same compound, in experiment [2], the Kd was under 1 nM.
Compound `Cc1ccc(C(CC(=O)O)c2ccn3c(C(F)F)nnc3c2C)cc1CN1CC2(CCOCC2)Oc2ncc(F)cc2S1(=O)=O` (stereo not shown) [Example 532, 3-(3-(Difluoromethyl)-8-methyl-[1,2,4]triazolo[4,3-a]pyridin-7-yl)-3-(3-((8′-fluoro-1′,1′-dioxido-2,3,5,6-tetrahydrospiro[pyran-4,4′-pyrido[2,3-b][1,4,5]oxathiazepin]-2′(3′H)-yl)methyl)-4-methylphenyl)propanoic Acid] showed an EC50 in experiment [1] of 41.7 nM. Besides, the Kd in experiment [2] is under 1 nM.
In turn, `CC[C@@H]1CN(Cc2cc(C(CC(=O)O)c3ccn4c(C(F)(F)F)nnc4c3)ccc2C)S(=O)(=O)c2cccnc2O1` (single isomer, unassigned) [Example 258, (*R)-3-(3-(((R)-4-Ethyl-1,1-dioxido-3,4-dihydro-2H-pyrido[2,3-b][1,4,5]oxathiazepin-2-yl)methyl)-4-methylphenyl)-3-(3-(trifluoromethyl)-[1,2,4]triazolo[4,3-a]pyridin-7-yl)propanoic Acid] gave an EC50 in experiment [1] of 428 nM. Further, the Kd in experiment [2] is under 1 nM.
In experiment [1], `Cc1ccc([C@@H](CC(=O)O)c2ccn3c(C(F)(F)F)nnc3c2C)cc1CN1C[C@@H]2CN(C)CCN2c2ncccc2S1(=O)=O` (single isomer, unassigned) [Example 179, (*R)-3-(4-Methyl-3-(((*S)-9-methyl-5,5-dioxido-7,7a,8,9,10,11-hexahydro-6H-pyrazino[2,1-d]pyrido[2,3-f][1,2,5]thiadiazepin-6-yl)methyl)phenyl)-3-(8-methyl-3-(trifluoromethyl)-[1,2,4]triazolo[4,3-a]pyridin-7-yl)propanoic Acid] showed an EC50 of 2040 nM. Moreover, the dissociation constant Kd in experiment [2] was determined as 58 nM.
The like results for `Cc1ccc([C@@H](CC(=O)O)c2ccc3c(nnn3CC3CC3)c2C)cc1CN1C[C@H]2CCCN2c2ncccc2S1(=O)=O` (single isomer, unassigned) [Example 401, (*R)-3-(1-(Cyclopropylmethyl)-4-methyl-1H-benzo[d][1,2,3]triazol-5-yl)-3-(3-(((R)-5,5-dioxido-7a,8,9,10-tetrahydropyrido[2,3-f]pyrrolo[2,1-d][1,2,5]thiadiazepin-6(7H)-yl)methyl)-4-methylphenyl)propanoic acid] were, in that order, 2.7 nM and under 1 nM.
Regarding `Cc1ccc([C@H](c2ccn3c(C(F)(F)F)nnc3c2C)C(C)(C)C(=O)O)cc1CN1CC2(CCOCC2)Oc2nc(NC(C)CN3CCCCC3)c(C)cc2S1(=O)=O` (stereo in doubt) [Example 376, 3-(*R)-2,2-Dimethyl-3-(4-methyl-3-((8′-methyl-1′,1′-dioxido-7′-((1-piperidin-1-yl)propan-2-yl)amino)-2,3,5,6-tetrahydrospiro[pyran-4,4′-pyrido[2,3-b][1,4,5]oxathiazepin]-2′(3′H)-yl)methyl)phenyl)-3-(8-methyl-3-(trifluoromethyl)-[1,2,4]triazolo[4,3-a]pyridine-7-yl)propanoic Acid], in experiment [1], the EC50 was 57.3 nM. In addition, in experiment [2], the Kd was under 1 nM.
On to `Cc1cnc2c(c1)S(=O)(=O)N(Cc1cc([C@@H](c3ccn4c(C(F)(F)F)nnc4c3C)C(C)(C)C(=O)O)ccc1C)CC1(CCNCC1)O2` (single isomer, unassigned) [Example 340, (*S)-2,2-Dimethyl-3-(4-methyl-3-((8′-methyl-1′,1′-dioxidospiro[piperidine-4,4′-pyrido[2,3-b][1,4,5]oxathiazepin]-2′(3′H)-yl)methyl)phenyl)-3-(8-methyl-3-(trifluoromethyl)-[1,2,4]triazolo[4,3-a]pyridin-7-yl)propanoic Acid], for which the EC50 in experiment [1] was found to be 629 nM. Besides, in experiment [2], the Kd came to 1.24 nM.
Compound `CCn1nnc2c(C)c(C(c3cnc(C)c(CN4CC5(CCOCC5)Oc5ncc(C)cc5S4(=O)=O)c3)C(C)(C)C(=O)O)ccc21` (racemic) [Example 61, (R/S)-3-(1-Ethyl-4-methyl-1H-benzo[d][1,2,3]triazol-5-yl)-2,2-dimethyl-3-(6-methyl-5-((8′-methyl-1′,1′-dioxido-2,3,5,6-tetrahydrospiro[pyran-4,4′-pyrido[2,3-b][1,4,5]oxathiazepin]-2′(3′H)-yl)methyl)pyridin-3-yl)propanoic Acid] gave an EC50 in experiment [1] of 41.7 nM. In experiment [2], the Kd is under 1 nM.
Regarding `Cc1ccc(C(CC(=O)O)c2ccn3c(C(F)(F)F)nnc3c2)cc1CN1C[C@@H]2CCCN2c2ncccc2S1(=O)=O` (stereo partly drawn) [Example 253, 3-(3-(((S)-5,5-Dioxido-7a,8,9,10-tetrahydropyrido[2,3-f]pyrrolo[2,1-d][1,2,5]thiadiazepin-6(7H)-yl)methyl)-4-methylphenyl)-3-(3-(trifluoromethyl)-[1,2,4]triazolo[4,3-a]pyridin-7-yl)propanoic Acid], in experiment [1], the EC50 came out at 1170 nM. In addition, the Kd in experiment [2] is under 1 nM.
The like results for `Cc1cnc2c(c1)S(=O)(=O)N(Cc1cc([C@H](c3ccn4c(C(F)(F)F)nnc4c3C)C(C)(C)C(=O)O)ccc1C)C[C@@]1(CCOC1)O2` (single isomer, unassigned) [Example 388, (*R)-2,2-Dimethyl-3-(4-methyl-3-(((*R)-8′-methyl-1′,1′-dioxido-4,5-dihydro-2H-spiro[furan-3,4′-pyrido[2,3-b][1,4,5]oxathiazepin]-2′(3′H)-yl)methyl)phenyl)-3-(8-methyl-3-(trifluoromethyl)-[1,2,4]triazolo[4,3-a]pyridin-7-yl)propanoic Acid] were, in that order, 1 nM and under 1 nM.
In experiment [1], `Cc1ccc([C@H](c2ccn3c(C(F)(F)F)nnc3c2C)C(C)(C)C(=O)O)cc1CN1CC2(CCOCC2)Oc2nc(OCCN3CCOCC3)ccc2S1(=O)=O` (single isomer, unassigned) [Example 48, (*R)-2,2-Dimethyl-3-(4-methyl-3-((7′-(2-morpholinoethoxy)-1′,1′-dioxido-2,3,5,6-tetrahydrospiro[pyran-4,4′-pyrido[2,3-b][1,4,5]oxathiazepin]-2′(3′H)-yl)methyl)phenyl)-3-(8-methyl-3-trifluoromethyl)-[1,2,4]triazolo[4,3-a]pyridine-7-yl)propanoic Acid] displayed an EC50 of 6270 nM. Also, the Kd in experiment [2] amounted to 820 nM.
Compound `Cc1ccc([C@@H](c2cc(C)n3c(C(F)(F)F)nnc3c2C)C(C)C(=O)O)cc1CN1C[C@@H]2CCCCN2c2ncccc2S1(=O)=O` (relative stereo) [Example 134, (3*S)-3-(5,8-Dimethyl-3)-(trifluoromethyl)-[1,2,4-triazolo[4,3-a]pyridine-7-yl)-3-(3-(((*S)-5,5-dioxido-7,7a,8,9,10,11-hexahydro-6H-dipyrido[2,1-d:2′,3′-][1,2,5]thiadiazepin-6-yl)methyl)-4-methylphenyl)-2-methylpropanoic Acid] registered an EC50 in experiment [1] of 61.3 nM. Moreover, in experiment [2], the Kd was under 1 nM.
In the case of `Cc1ccc([C@@H](c2ccn3c(C(F)(F)F)nnc3c2C)C(C)(C)C(=O)O)cc1CN1CC2(CCOCC2)Oc2nc(O[C@@H](C)CN3CCCCC3)c(C)cc2S1(=O)=O` (single isomer, unassigned) [Example 602, (*S)-2,2-Dimethyl-3-(4-methyl-3-((8′-methyl-1′,1′-dioxido-7′-(((*S)-1-(piperidin-1-yl)propan-2-yl)oxy)-2,3,5,6-tetrahydrospiro[pyran-4,4′-pyrido[2,3-b][1,4,5]oxathiazepin]-2′,(3′H)-yl)methyl)phenyl)-3-(8-methyl-3-(trifluoromethyl)-[1,2,4]triazolo[4,3-a]pyridine-7-yl)propanoic Acid], the EC50 in experiment [1] amounted to 2.72 nM. In addition, the Kd in experiment [2] is under 1 nM.
For `Cc1ccc(C(c2ccn3c(C(F)(F)F)nnc3c2C)C(C)(C)C(=O)O)cc1CN1CC2(CCOCC2)Oc2nc(OCCN3CCOCC3)ccc2S1(=O)=O` (racemic) [Example 46], in experiment [1], the EC50 amounted to 71.9 nM. For the same compound, in experiment [2], the Kd is under 1 nM.
